The structures appear in SMILES notation. Bounds are passed on as bounds.

The text below walks through data of US20220144838A1, “Compounds as Inhibitors of Macrophage Migration Inhibitory Factor” (NANJING IMMUNOPHAGE BIOTECH CO., LTD., priority 2019, published 2022).

The experiment concerns the target T1, MIF (Homo sapiens, UniProt P14174).
T1 sequence (P14174 2-115 limits assumed): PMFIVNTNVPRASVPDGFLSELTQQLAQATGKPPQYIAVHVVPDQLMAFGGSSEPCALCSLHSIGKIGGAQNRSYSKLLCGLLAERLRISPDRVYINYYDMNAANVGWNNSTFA
The experiment is described as follows: MIF tautomerase assay using pHPP as substrate. It counts as biochemical. As to conditions: inhibition of the MIF enzyme in vitro; mean of multiple test results; read-out: Tautomerase Inhibition pIC50 (converted). The gist of the method:
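Mean pIC50 derived from initial rates (absorbance progress-curve slopes) of MIF-catalyzed ketonic-to-enolic pHPP conversion, read as enol–borate complex. Reactions contained 1.5 mM substrate and 3 nM enzyme (final), 200 mM boric acid stock buffer, BSA and CHAPS, pH 6.0.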
Consider `OC[C@@H](COCc1ccccc1)Nc1nc(N2CCN(c3ccc(O)cc3)CC2)nc2c1ncn2-c1ccncc1` [Example 176, (S)-4-(4-(6-((1-(benzyloxy)-3-hydroxypropan-2-yl)amino)-9-(pyridin-4-yl)-9H-purin-2-yl)piperazin-1-yl)phenol], for which the IC50 was 0.1 to 0.977 µM. For `CC(CO)(CO)Nc1nc(N2CCN(c3ccc(O)cc3)CC2)nc2c1ncn2-c1ccncc1` [Example 177, 2-((2-(4-(4-hydroxyphenyl)piperazin-1-yl)-9-(pyridin-4-yl)-9H-purin-6-yl)amino)-2-methylpropane-1,3-diol], the IC50 was 0.1 to 0.977 µM. In the case of `Oc1ccc(N2CCN(c3nc(N4CCNCC4)c4ncn(-c5ccncc5)c4n3)CC2)cc1` [Example 178, 4-(4-(6-(piperazin-1-yl)-9-(pyridin-4-yl)-9H-purin-2-yl)piperazin-1-yl)phenol], the IC50 was 0.1 to 0.977 µM. Under `CN1CCN(c2nc(N3CCN(c4ccc(O)cc4)CC3)nc3c2ncn3-c2ccncc2)CC1` [Example 179, 4-(4-(6-(4-methylpiperazin-1-yl)-9-(pyridin-4-yl)-9H-purin-2-yl)piperazin-1-yl)phenol] stands 1 to 9.77 µM.

Consider `CN(CC(=O)O)c1nc(N2CCN(c3ccccc3)CC2)nc2c1ncn2-c1ccncc1` [Example 180, N-methyl-N-(2-(4-phenylpiperazin-1-yl)-9-(pyridin-4-yl)-9H-purin-6-yl)glycine], for which the IC50 is greater than 10 µM. Turning to `O=C(O)C1CCN(c2nc(N3CCN(c4cccnc4)CC3)nc3c2ncn3-c2ccncc2)C1` (stereo not shown) [Example 181, 1-(2-(4-(pyridin-3-yl)piperazin-1-yl)-9-(pyridin-4-yl)-9H-purin-6-yl)pyrrolidine-3-carboxylic acid], the IC50 was greater than 10 µM. Turning to `O=C(O)C1CCN(c2nc(N3CCN(c4ccccc4)CC3)nc3c2ncn3-c2ccncc2)C1` (stereo not shown) [Example 182, 1-(2-(4-phenylpiperazin-1-yl)-9-(pyridin-4-yl)-9H-purin-6-yl)pyrrolidine-3-carboxylic acid], the IC50 is greater than 10 µM. The figure for `CCC(CO)N(C)c1nc(N2CCN(c3ccc(O)cc3)CC2)nc2c1ncn2-c1cccnc1` (stereo not shown) [Example 183, 4-(4-(6-((1-hydroxybutan-2-yl)(methyl)amino)-9-(pyridin-3-yl)-9H-purin-2-yl)piperazin-1-yl)phenol] is greater than 10 µM; for `Oc1ccc(N2CCN(c3ncc4ncn(-c5ccncc5)c4n3)CC2)cc1` [Example 184, 4-(4-(9-(pyridin-4-yl)-9H-purin-2-yl)piperazin-1-yl)phenol] it is 0.01 to 0.0977 µM. Under `Cc1nc(N2CCC(O)(c3ccc(O)cc3)CC2)nc2c1ncn2-c1ccc(C#N)cc1` [Example 185, 4-(2-(4-hydroxy-4-(4-hydroxyphenyl)piperidin-1-yl)-6-methyl-9H-purin-9-yl)benzonitrile] stands greater than 10 µM; under `CC1CN(c2nc(N)c3ncn(-c4ccncc4)c3n2)CCN1c1ccc(O)cc1` (stereo not shown) [Example 186, 4-(4-(6-amino-9-(pyridin-4-yl)-9H-purin-2-yl)-2-methylpiperazin-1-yl)phenol], 0.1 to 0.977 µM. Under `Nc1nc(N2CCN(c3ccc(O)cc3)CC2)nc2c1ncn2C1CCCCO1` (stereo not shown) [Example 187, 4-(4-(6-amino-9-(tetrahydro-2H-pyran-2-yl)-9H-purin-2-yl)piperazin-1-yl)phenol] stands greater than 10 µM. Regarding `Nc1nc(N2CCN(c3ccc(O)cc3)CC2)nc2c1ncn2C1CCNCC1` [Example 188, 4-(4-(6-amino-9-(piperidin-4-yl)-9H-purin-2-yl)piperazin-1-yl)phenol], the IC50 was greater than 10 µM.

For the molecule `Nc1ccc(N2CCN(c3nc(N)c4ncn(-c5ccncc5)c4n3)CC2)nc1` [Example 190, 2-(4-(5-aminopyridin-2-yl)piperazin-1-yl)-9-(pyridin-4-yl)-9H-purin-6-amine], the IC50 was greater than 10 µM. In the case of `Nc1nc(N2CCN(c3ccc(CCO)cc3)CC2)nc2c1ncn2-c1ccncc1` [Example 191, 2-(4-(4-(6-amino-9-(pyridin-4-yl)-9H-purin-2-yl)piperazin-1-yl)phenyl)ethan-1-ol], the IC50 was greater than 10 µM.

For the molecule `Nc1nc(N2CCN(c3ccc(CO)cc3)CC2)nc2c1ncn2-c1ccncc1` [Example 192, (4-(4-(6-amino-9-(pyridin-4-yl)-9H-purin-2-yl)piperazin-1-yl)phenyl)methanol], the IC50 is greater than 10 µM.

Regarding `Nc1nc(N2CCN(c3ccc(C(=O)O)cn3)CC2)nc2c1ncn2-c1ccncc1` [Example 193, 6-(4-(6-amino-9-(pyridin-4-yl)-9H-purin-2-yl)piperazin-1-yl)nicotinic acid], the IC50 is greater than 10 µM.

Regarding `NC(=O)c1ccc(N2CCN(c3nc(N)c4ncn(-c5ccncc5)c4n3)CC2)nc1` [Example 194, 6-(4-(6-amino-9-(pyridin-4-yl)-9H-purin-2-yl)piperazin-1-yl)nicotinamide], the IC50 was greater than 10 µM. Under `Nc1nc(N2CCC(n3cc(C(=O)O)cn3)CC2)nc2c1ncn2-c1ccncc1` [Example 195, 1-(1-(6-amino-9-(pyridin-4-yl)-9H-purin-2-yl)piperidin-4-yl)-1H-pyrazole-4-carboxylic acid] stands greater than 10 µM; under `Nc1nc(N2CCN(c3ccc(CO)cn3)CC2)nc2c1ncn2-c1ccncc1` [Example 196, (6-(4-(6-amino-9-(pyridin-4-yl)-9H-purin-2-yl)piperazin-1-yl)pyridin-3-yl)methanol], greater than 10 µM.

As to `Nc1nc(N2CCC(O)(C#CCO)CC2)nc2c1ncn2-c1ccncc1` [Example 198, 1-(6-amino-9-(pyridin-4-yl)-9H-purin-2-yl)-4-(3-hydroxyprop-1-yn-1-yl)piperidin-4-ol], the IC50 is greater than 10 µM. On to `Nc1nc(N2CC(O)(c3cn[nH]c3)C2)nc2c1ncn2-c1ccncc1` [Example 199, 1-(6-amino-9-(pyridin-4-yl)-9H-purin-2-yl)-3-(1H-pyrazol-4-yl)azetidin-3-ol], for which the IC50 was greater than 10 µM. In the case of `OC1(c2cn[nH]c2)CN(c2ncc3ncn(-c4ccncc4)c3n2)C1` [Example 200, 3-(1H-pyrazol-4-yl)-1-(9-(pyridin-4-yl)-9H-purin-2-yl)azetidin-3-ol], the IC50 was greater than 10 µM. In the case of `Nc1nc(N2CC(O)(c3nccs3)C2)nc2c1ncn2-c1ccncc1` [Example 201, 1-(6-amino-9-(pyridin-4-yl)-9H-purin-2-yl)-3-(thiazol-2-yl)azetidin-3-ol], the IC50 was greater than 10 µM. Under `Nc1nc(N2CCC(O)(c3ccccc3)CC2)nc2c1ncn2-c1ccncc1` [Example 202, 1-(6-amino-9-(pyridin-4-yl)-9H-purin-2-yl)-4-phenylpiperidin-4-ol] stands greater than 10 µM; under `Cc1cc(-n2cnc3c(C)nc(N4CCC(O)(c5ccc(O)cc5)CC4)nc32)ccn1` [Example 203, 4-(4-hydroxyphenyl)-1-(6-methyl-9-(2-methylpyridin-4-yl)-9H-purin-2-yl)piperidin-4-ol], greater than 10 µM; under `Cc1nc(N2CCC(O)(c3ccc(O)cc3)CC2)nc2c1ncn2-c1cccnc1` [Example 204, 4-(4-hydroxyphenyl)-1-(6-methyl-9-(pyridin-3-yl)-9H-purin-2-yl)piperidin-4-ol], 0.01 to 0.0977 µM. Under `CN(CC(=O)O)c1nc(N2CCC(O)(c3ccc(O)cc3)CC2)nc2c1ncn2-c1ccncc1` [Example 205, N-(2-(4-hydroxy-4-(4-hydroxyphenyl)piperidin-1-yl)-9-(pyridin-4-yl)-9H-purin-6-yl)-N-methylglycine] stands 0.1 to 0.977 µM.
